Laboratory results published in the NIST ThermoML archive (doi:10.1016/j.jct.2004.11.023).

Assay: xn = mol fraction of the nth substance listed
Settings: 101 kPa, Liquid, Vibrating tube method

CC(=O)c1ccccc1 [acetophenone] + Cc1cc(C)cc(C)c1
mass density [kg/m3]
Settings	298.15 K	328.15 K
x2 = 0	1023.13	996.99
x2 = 0.09015	1006.63	980.65
x2 = 0.185	989.75	963.9
x2 = 0.2674	975.43	949.71
x2 = 0.358	960.07	934.46
x2 = 0.4569	943.72	918.28
x2 = 0.5358	930.98	905.65
x2 = 0.6409	914.41	889.25
x2 = 0.7322	900.4	875.38
x2 = 0.836	884.84	860
x2 = 0.8961	876.03	851.31

c1ccccc1 [benzene] + CC(=O)c1ccccc1
x1 = 1
Settings	mass density [kg/m3]
298.15 K	873.64
328.15 K	841.51

Cc1cccc(C)c1 [1,3-dimethylbenzene] + CC(=O)c1ccccc1
x1 = 1
Settings	mass density [kg/m3]
298.15 K	859.88
328.15 K	834.12

CC(=O)c1ccccc1 [acetophenone] + Cc1ccccc1
mass density [kg/m3]
Settings	298.15 K	328.15 K
x2 = 0	1023.12	997.01
x2 = 0.1016	1008.8	982.57
x2 = 0.1982	994.83	968.48
x2 = 0.257	986.17	959.73
x2 = 0.3576	971	944.41
x2 = 0.453	956.2	929.46
x2 = 0.5369	942.81	915.9
x2 = 0.6366	926.48	899.39
x2 = 0.7154	913.19	885.89
x2 = 0.8198	895.09	867.55
x2 = 0.9019	880.36	852.62

Cc1ccccc1 [toluene] + CC(=O)c1ccccc1
x1 = 1
Settings	mass density [kg/m3]
298.15 K	862.27
328.15 K	834.26

Cc1cc(C)cc(C)c1 [1,3,5-trimethylbenzene] + CC(=O)c1ccccc1
x1 = 1
Settings	mass density [kg/m3]
298.15 K	861.13
328.15 K	836.63

CC(=O)c1ccccc1 [acetophenone] + c1ccccc1
mass density [kg/m3]
Settings	298.15 K	328.15 K
x2 = 0	1023.11	997
x2 = 0.1057	1011.02	984.62
x2 = 0.186	1001.34	974.7
x2 = 0.2855	988.94	961.91
x2 = 0.3792	976.58	949.15
x2 = 0.4626	964.98	937.16
x2 = 0.5484	952.49	924.19
x2 = 0.6248	940.71	911.99
x2 = 0.7289	923.84	894.3
x2 = 0.8003	911.56	881.44
x2 = 0.8953	894.23	863.18

CC(=O)c1ccccc1 [acetophenone] + Cc1cccc(C)c1
mass density [kg/m3]
Settings	298.15 K	328.15 K
x2 = 0	1023.12	996.98
x2 = 0.09263	1007.97	981.88
x2 = 0.1807	993.62	967.52
x2 = 0.2662	979.65	953.61
x2 = 0.3566	964.94	938.89
x2 = 0.4525	949.31	923.26
x2 = 0.538	935.34	909.32
x2 = 0.6252	921.13	895.13
x2 = 0.7339	903.38	877.43
x2 = 0.8479	884.76	858.85
x2 = 0.8943	877.15	851.29
